Assay results reported in article PMC5884507, “A group of Populus trichocarpa DUF231 proteins exhibit differential O-acetyltransferase activities toward xylan” (PLoS ONE, 2018).

Key:
Assay in all cases: radiolabelled acetyl transfer, scintillation counting
Assay type in all cases: biochemical
Conditions in all cases: 0.1 mM 14C-acetyl-CoA, 50 mM HEPES pH 7.0, 37 C, 4 hr
PtrXOAT4 = target: T1, PtrXOAT4 (Populus trichocarpa, UniProt A0A2R4P4M0)
T1 construct: gene XOAT4; lumenal catalytic domain 37-428, transmembrane region removed; Igkappa leader, C-terminal c-myc and His6; secreted by HEK293F, nickel-purified
T1 sequence (A0A2R4P4M0 entry or part of it): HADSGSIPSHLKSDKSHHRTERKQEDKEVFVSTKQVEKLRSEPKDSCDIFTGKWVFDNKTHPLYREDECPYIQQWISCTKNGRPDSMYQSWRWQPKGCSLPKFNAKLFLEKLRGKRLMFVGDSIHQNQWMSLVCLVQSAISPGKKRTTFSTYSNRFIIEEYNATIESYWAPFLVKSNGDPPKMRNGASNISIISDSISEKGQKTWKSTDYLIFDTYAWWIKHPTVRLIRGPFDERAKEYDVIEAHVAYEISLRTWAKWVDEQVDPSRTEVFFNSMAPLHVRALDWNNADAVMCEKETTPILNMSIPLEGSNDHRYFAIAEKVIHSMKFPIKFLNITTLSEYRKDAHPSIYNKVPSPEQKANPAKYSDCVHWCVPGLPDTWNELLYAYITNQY

PtrXOAT10 = target: T2, PtrXOAT10 (Populus trichocarpa, UniProt A0A2R4P4N0)
T2 construct: gene XOAT10; lumenal catalytic domain 55-438, transmembrane region removed; Igkappa leader, C-terminal c-myc and His6; secreted by HEK293F, nickel-purified
T2 sequence (A0A2R4P4N0 entry or part of it): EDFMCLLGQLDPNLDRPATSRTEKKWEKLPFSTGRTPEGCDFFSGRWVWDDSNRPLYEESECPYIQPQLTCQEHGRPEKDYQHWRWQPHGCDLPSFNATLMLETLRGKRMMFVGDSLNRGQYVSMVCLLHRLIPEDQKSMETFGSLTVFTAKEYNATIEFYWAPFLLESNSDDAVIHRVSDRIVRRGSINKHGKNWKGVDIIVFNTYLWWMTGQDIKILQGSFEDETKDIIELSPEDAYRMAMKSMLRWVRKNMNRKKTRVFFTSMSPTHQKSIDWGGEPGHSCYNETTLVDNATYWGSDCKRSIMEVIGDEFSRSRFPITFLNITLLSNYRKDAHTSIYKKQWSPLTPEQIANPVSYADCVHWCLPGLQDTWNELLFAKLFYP

PtrXOAT8 = target: T3, PtrXOAT8 (Populus trichocarpa, UniProt A0A2R4P4N1)
T3 construct: gene XOAT8; lumenal catalytic domain 33-415, transmembrane region removed; Igkappa leader, C-terminal c-myc and His6; secreted by HEK293F, nickel-purified
T3 sequence (A0A2R4P4N1 entry or part of it): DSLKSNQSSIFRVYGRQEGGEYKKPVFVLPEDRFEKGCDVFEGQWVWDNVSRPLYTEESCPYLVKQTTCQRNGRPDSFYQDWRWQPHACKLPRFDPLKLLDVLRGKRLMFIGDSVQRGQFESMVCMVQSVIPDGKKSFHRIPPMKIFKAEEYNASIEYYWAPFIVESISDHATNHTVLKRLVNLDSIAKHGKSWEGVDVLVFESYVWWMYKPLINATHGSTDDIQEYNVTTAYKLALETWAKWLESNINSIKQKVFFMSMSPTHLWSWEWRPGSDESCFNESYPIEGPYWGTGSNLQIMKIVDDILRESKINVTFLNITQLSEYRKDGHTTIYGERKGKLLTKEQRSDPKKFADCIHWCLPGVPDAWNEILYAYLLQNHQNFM

PtrXOAT9 = target: T4, PtrXOAT9 (Populus trichocarpa, UniProt A0A2K1ZDC4)
T4 construct: gene XOAT9; lumenal catalytic domain 52-437, transmembrane region removed; Igkappa leader, C-terminal c-myc and His6; secreted by HEK293F, nickel-purified
T4 sequence (A0A2K1ZDC4 entry or part of it): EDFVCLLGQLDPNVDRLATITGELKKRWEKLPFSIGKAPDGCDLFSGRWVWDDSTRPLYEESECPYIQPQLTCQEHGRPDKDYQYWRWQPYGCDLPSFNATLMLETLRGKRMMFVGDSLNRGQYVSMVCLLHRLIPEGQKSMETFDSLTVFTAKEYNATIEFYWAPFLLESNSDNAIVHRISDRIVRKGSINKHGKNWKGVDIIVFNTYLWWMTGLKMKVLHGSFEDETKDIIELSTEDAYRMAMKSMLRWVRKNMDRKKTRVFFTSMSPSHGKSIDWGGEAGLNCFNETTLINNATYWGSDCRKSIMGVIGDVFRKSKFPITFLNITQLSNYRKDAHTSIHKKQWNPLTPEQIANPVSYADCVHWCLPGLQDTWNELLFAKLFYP

PtrXOAT6 = target: T5, PtrXOAT6 (Populus trichocarpa, UniProt A0A2R4P4M4)
T5 construct: gene XOAT6; lumenal catalytic domain 36-446, transmembrane region removed; Igkappa leader, C-terminal c-myc and His6; secreted by HEK293F, nickel-purified
T5 sequence (A0A2R4P4M4 entry or part of it): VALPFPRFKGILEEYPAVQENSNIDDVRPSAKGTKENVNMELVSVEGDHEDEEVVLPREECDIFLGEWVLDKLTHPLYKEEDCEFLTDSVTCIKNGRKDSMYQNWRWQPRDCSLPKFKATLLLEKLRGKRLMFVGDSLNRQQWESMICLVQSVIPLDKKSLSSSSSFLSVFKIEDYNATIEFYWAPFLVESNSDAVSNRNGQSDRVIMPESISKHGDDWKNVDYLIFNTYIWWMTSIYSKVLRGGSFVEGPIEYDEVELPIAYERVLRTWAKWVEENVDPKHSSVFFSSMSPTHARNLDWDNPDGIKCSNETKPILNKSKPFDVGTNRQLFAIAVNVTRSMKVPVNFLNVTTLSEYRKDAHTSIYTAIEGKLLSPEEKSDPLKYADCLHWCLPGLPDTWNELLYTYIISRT

PtrXOAT5 = target: T6, PtrXOAT5 (Populus trichocarpa, UniProt A0A2R4P4M8)
T6 construct: gene XOAT5; lumenal catalytic domain 33-470, transmembrane region removed; Igkappa leader, C-terminal c-myc and His6; secreted by HEK293F, nickel-purified
T6 sequence (A0A2R4P4M8 entry or part of it): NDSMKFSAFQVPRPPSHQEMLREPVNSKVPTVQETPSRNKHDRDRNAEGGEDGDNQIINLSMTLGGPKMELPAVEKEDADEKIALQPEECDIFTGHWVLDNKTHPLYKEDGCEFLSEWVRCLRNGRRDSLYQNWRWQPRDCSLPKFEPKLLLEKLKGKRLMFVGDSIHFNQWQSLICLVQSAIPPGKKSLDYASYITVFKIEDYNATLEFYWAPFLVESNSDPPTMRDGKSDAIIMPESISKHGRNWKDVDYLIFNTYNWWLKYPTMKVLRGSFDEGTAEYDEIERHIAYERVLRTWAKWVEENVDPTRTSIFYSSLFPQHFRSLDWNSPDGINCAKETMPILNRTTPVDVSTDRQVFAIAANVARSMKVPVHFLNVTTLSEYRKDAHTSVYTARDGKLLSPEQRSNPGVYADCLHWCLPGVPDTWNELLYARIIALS

PtrXOAT7 = target: T7, PtrXOAT7 (Populus trichocarpa, UniProt B9IGB9)
T7 construct: gene XOAT7; lumenal catalytic domain 38-426, transmembrane region removed; Igkappa leader, C-terminal c-myc and His6; secreted by HEK293F, nickel-purified
T7 sequence (B9IGB9 entry or part of it): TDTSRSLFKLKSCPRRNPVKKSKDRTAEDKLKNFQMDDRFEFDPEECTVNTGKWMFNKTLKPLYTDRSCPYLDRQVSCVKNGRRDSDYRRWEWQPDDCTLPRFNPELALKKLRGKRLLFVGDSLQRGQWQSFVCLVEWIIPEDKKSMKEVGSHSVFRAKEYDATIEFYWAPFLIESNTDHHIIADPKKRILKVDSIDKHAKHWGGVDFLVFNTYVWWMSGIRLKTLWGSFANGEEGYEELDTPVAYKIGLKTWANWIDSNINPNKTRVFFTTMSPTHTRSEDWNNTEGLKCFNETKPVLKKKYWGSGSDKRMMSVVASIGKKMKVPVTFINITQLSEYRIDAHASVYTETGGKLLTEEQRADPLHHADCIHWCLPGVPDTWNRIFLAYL

Which results are given for `OC1OC[C@@H](O[C@@H]2OC[C@@H](O[C@@H]3OC[C@@H](O[C@@H]4OC[C@@H](O[C@@H]5OC[C@@H](O[C@@H]6OC[C@@H](O)[C@H](O)[C@H]6O)[C@H](O)[C@H]5O)[C@H](O)[C@H]4O)[C@H](O)[C@H]3O)[C@H](O)[C@H]2O)[C@H](O)[C@H]1O` (stereo partly shown) [Xyl6, xylohexaose]?
radiolabelled acetyl transfer, scintillation counting (PtrXOAT4): PtrXOAT4 to PtrXOAT10 had a low level of activity; radiolabelled acetyl transfer, scintillation counting (PtrXOAT10): PtrXOAT4 to PtrXOAT10 had a low level of activity; radiolabelled acetyl transfer, scintillation counting (PtrXOAT8): PtrXOAT4 to PtrXOAT10 had a low level of activity; radiolabelled acetyl transfer, scintillation counting (PtrXOAT9): PtrXOAT4 to PtrXOAT10 had a low level of activity; radiolabelled acetyl transfer, scintillation counting (PtrXOAT6): PtrXOAT4 to PtrXOAT10 had a low level of activity; radiolabelled acetyl transfer, scintillation counting (PtrXOAT5): PtrXOAT4 to PtrXOAT10 had a low level of activity; radiolabelled acetyl transfer, scintillation counting (PtrXOAT7): PtrXOAT4 to PtrXOAT10 had a low level of activity
